Results from article PMC8518114, “Safety, tolerability and pharmacokinetics of emodepside, a potential novel treatment for onchocerciasis (river blindness), in healthy male subjects” (British Journal of Clinical Pharmacology, 2021).
Like-named read-outs stand apart in the source and are kept apart here.

Experiment: Plasma pharmacokinetics of emodepside, single ascending dose (SAD) and food effect study
Assay type: in vivo, human
Conditions: for AUC 0–24 /D / C max /D: dose-normalised; for t ½ 0–24 (dominant half-life): terminal slope of log concentration–time (0–24 h) curve; for half-life: ln2/λz, read-out: Terminal t ½ (converted); for Tmax: median (range)
Method: Emodepside and placebo were supplied as a LSF and a standard immediate‐release (IR) tablet. The LSF was a 0.1% (w/v) solution containing 1 mg emodepside/mL. Conventional IR tablets containing emodepside in crystalline form were supplied in 2 dosage strengths, 5 and 20 mg, for the single ascending dose (SAD) study.
To preclude any dietary effects on the PK of emodepside, subjects in the fasting cohorts fasted for 9 hours before receiving the IP. Subjects in the fed cohort fasted for 10 hours prior to dosing and received a standard high‐calorie, high‐fat breakfast 30 minutes prior to dosing.
Blood samples (5 mL) were collected by venepuncture or via a cannula into EDTA tubes and immediately placed on ice. Samples were centrifuged at 1500 g for 10 minutes at 4°C. The plasma was aliquoted into 2 polypropylene tubes, which were stored at −20°C. Blood samples for PK analysis were taken at the following time points: • SAD: predose and 0.5, 1, 1.5, 2, 2.5, 3, 4, 5, 6, 8, 12, 24, 36, 48, 72, 96, 120, 144 and 168 hours, and 21 days postdose (cohort 1–9) or predose and 0.5, 1, 3, 6, 8, 12, 24, 36, 48, 72, 96, 120, 144 and 168 hours, and 10, 14, 18 and 21 days postdose (cohort 10). • Multiple ascending dose (MAD), as below: • on Day 1: predose and at 0.25, 0.5, 1, 1.5, 2, 2.5, 3, 4, 6, 8, 12 and 15 hours postdose • on Days 2–9: before the morning dose • on Day 10: before and at 0.25, 0.5, 1, 1.5, 2, 2.5, 3, 4, 6, 8, 12 and 15 hours • on Days 11, 12, 13, 14, 15, 18, 21, 24 and 30.
Emodepside plasma concentrations were determined by a validated high performance liquid chromatography–tandem mass spectrometry assay, using a Alltima C18 5 μm 150 mm x 2.1 mm column and an Applied Biosystems API4000 Turbo Ion Spray detector using positive ion mode. Analyst version 1.3.2 or 1.6.3 software, obtained from AB Sciex UK Ltd, Warrington, UK was used for chromatogram data analysis and quantitative calculations. Deuterated emodepside‐D16 was used as the internal standard. The lower limit of quantitation for emodepside in plasma was 1 ng/mL. Values below this limit were not used to calculate the PK parameters, except values that were below the limit of quantification before Cmax, which were set to zero.
The highest observed plasma concentration (Cmax) was determined directly from concentration–time data, as was the time to reach maximum plasma concentration (tmax). The area under the plasma concentration–time curve from time zero (predose) to the time of last quantifiable concentration (AUC0‐last) was calculated using the linear‐log trapezoidal rule. Elimination half‐life (t1/2) was calculated by the equation ln2/λz.
Statistical analyses were performed using SAS version 9.3 (Cary, NC, USA). Demographic data and baseline characteristics were listed and summarised. […] PK parameters were derived from plasma concentration vs. time data using a noncompartmental analysis in Phoenix WinNonlin version 7 (Certara Inc., Princeton, NJ, USA). Plasma concentration vs. time data and PK parameters were listed, and summarised by treatment, using descriptive statistics. Mean concentrations were calculated only if at least ⅔ of the individual concentrations were above the lower limit of quantification. […] Planned sampling times were used to summarise plasma‐concentration data; actual sampling times were used in the derivation of PK parameters.

[1] = SAD, single oral 1 mg LSF fasting, mean
[2] = SAD, single oral 2.5 mg LSF fasting, mean
[3] = SAD, single oral 5 mg IRT fasting, mean
[4] = SAD, single oral 5 mg LSF fasting, mean
[5] = SAD, single oral 10 mg LSF Fed, mean
[6] = SAD, single oral 10 mg LSF fasting, mean
[7] = SAD, single oral 20 mg IRT fasting, mean
[8] = SAD, single oral 20 mg LSF fasting, mean
[9] = SAD, single oral 40 mg LSF fasting, mean
[10] = human, in vivo, po, 1 mg, SAD, single oral 1 mg LSF fasting, plasma, HPLC-MS/MS, mean
[11] = human, in vivo, po, 2.5 mg, SAD, single oral 2.5 mg LSF fasting, plasma, HPLC-MS/MS, mean
[12] = human, in vivo, po, 5 mg, SAD, single oral 5 mg IRT fasting, plasma, HPLC-MS/MS, mean
[13] = human, in vivo, po, 5 mg, SAD, single oral 5 mg LSF fasting, plasma, HPLC-MS/MS, mean
[14] = human, in vivo, po, 10 mg, SAD, single oral 10 mg LSF Fed, plasma, HPLC-MS/MS, mean
[15] = human, in vivo, po, 10 mg, SAD, single oral 10 mg LSF fasting, plasma, HPLC-MS/MS, mean
[16] = human, in vivo, po, 20 mg, SAD, single oral 20 mg IRT fasting, plasma, HPLC-MS/MS, mean
[17] = human, in vivo, po, 20 mg, SAD, single oral 20 mg LSF fasting, plasma, HPLC-MS/MS, mean
[18] = human, in vivo, po, 40 mg, SAD, single oral 40 mg LSF fasting, plasma, HPLC-MS/MS, mean

Question: What does the source list for `CC(C)C[C@H]1C(=O)O[C@H](Cc2ccc(N3CCOCC3)cc2)C(=O)N(C)[C@@H](CC(C)C)C(=O)O[C@H](C)C(=O)N(C)[C@@H](CC(C)C)C(=O)O[C@H](Cc2ccc(N3CCOCC3)cc2)C(=O)N(C)[C@@H](CC(C)C)C(=O)O[C@H](C)C(=O)N1C` [emodepside]?
Answer: Plasma emodepside concentrations lower in the first 24 hours postdose, based on geometric mean Cmax (SAD, all dose levels and both formulations): approximately 90%; AUC0-last in fed relative to fasting conditions (SAD, single 10-mg dose of the LSF): not statistically different; AUC 0–24 /D [1]: 100 [h.ng/mL]/mg; C max /D [1]: 18.6 [ng/mL]/mg; t ½ 0–24 (dominant half-life) [1]: 8.45 h; AUC 0–24 /D [2]: 100 [h.ng/mL]/mg; C max /D [2]: 15.0 [ng/mL]/mg; t ½ 0–24 (dominant half-life) [2]: 10.6 h; AUC 0–24 /D [3]: 36.5 [h.ng/mL]/mg; C max /D [3]: 5.15 [ng/mL]/mg; AUC 0–24 (SAD, single oral 5 mg IRT fasting, plasma, HPLC-MS/MS, mean): 183 ng·h/mL; t ½ 0–24 (dominant half-life) [3]: 10.8 h; AUC 0–24 /D [4]: 104 [h.ng/mL]/mg; C max /D [4]: 18.4 [ng/mL]/mg; AUC 0–24 (SAD, single oral 5 mg LSF fasting, plasma, HPLC-MS/MS, mean): 522 ng·h/mL; t ½ 0–24 (dominant half-life) [4]: 11.6 h; AUC 0–24 /D [5]: 67.3 [h.ng/mL]/mg; C max /D [5]: 7.19 [ng/mL]/mg; t ½ 0–24 (dominant half-life) [5]: 11.1 h; AUC 0–24 /D [6]: 99.6 [h.ng/mL]/mg; C max /D [6]: 17.2 [ng/mL]/mg; t ½ 0–24 (dominant half-life) [6]: 10.9 h; AUC 0–24 /D [7]: 11.2 [h.ng/mL]/mg; C max /D [7]: 1.51 [ng/mL]/mg; AUC 0–24 (SAD, single oral 20 mg IRT fasting, plasma, HPLC-MS/MS, mean): 223 ng·h/mL; t ½ 0–24 (dominant half-life) [7]: 11.3 h; AUC 0–24 /D [8]: 95.3 [h.ng/mL]/mg; C max /D [8]: 15.3 [ng/mL]/mg; AUC 0–24 (SAD, single oral 20 mg LSF fasting, plasma, HPLC-MS/MS, mean): 1910 ng·h/mL; t ½ 0–24 (dominant half-life) [8]: 10.5 h; AUC 0–24 /D [9]: 103 [h.ng/mL]/mg; C max /D [9]: 14.9 [ng/mL]/mg; AUC last (SAD, single oral 40 mg LSF fasting, plasma, HPLC-MS/MS, mean): 16 400 h.ng/mL; Half-life during the first 24 hours after dosing (distribution phase) (healthy subjects, oral, across the 2 studies): around 11 hours; AUC 0–24 h [10]: 100 ng·h/mL; AUC(0-t) [10]: 182 ng·h/mL; Cmax [10]: 18.6 ng/mL; half-life (human, in vivo, po, 1 mg, SAD, single oral 1 mg LSF fasting, plasma, mean): 42.7 h; Tmax (human, in vivo, po, 1 mg, SAD, single oral 1 mg LSF fasting, plasma): 1 h; AUC 0–24 h [11]: 250 ng·h/mL; AUC(0-t) [11]: 845 ng·h/mL; Cmax [11]: 37.6 ng/mL; half-life (human, in vivo, po, 2.5 mg, SAD, single oral 2.5 mg LSF fasting, plasma, mean): 449 h; Tmax (human, in vivo, po, 2.5 mg, SAD, single oral 2.5 mg LSF fasting, plasma): 1 h; F rel (human, in vivo, po, 5 mg): 35%; AUC(0-t) [12]: 501 ng·h/mL; Cmax [12]: 25.7 ng/mL; half-life (human, in vivo, po, 5 mg, SAD, single oral 5 mg IRT fasting, plasma, mean): 267 h; Tmax (human, in vivo, po, 5 mg, SAD, single oral 5 mg IRT fasting, plasma): 2 h; AUC(0-t) [13]: 1700 ng·h/mL; Cmax [13]: 92.1 ng/mL; half-life (human, in vivo, po, 5 mg, SAD, single oral 5 mg LSF fasting, plasma, mean): 415 h; Tmax (human, in vivo, po, 5 mg, SAD, single oral 5 mg LSF fasting, plasma): 1 h; AUC 0–24 h [14]: 673 ng·h/mL; AUC(0-t) [14]: 3390 ng·h/mL; Cmax [14]: 71.9 ng/mL; half-life (human, in vivo, po, 10 mg, SAD, single oral 10 mg LSF Fed, plasma, mean): 531 h; Tmax (human, in vivo, po, 10 mg, SAD, single oral 10 mg LSF Fed, plasma): 2.5 h; AUC 0–24 h [15]: 996 ng·h/mL; AUC(0-t) [15]: 3070 ng·h/mL; Cmax [15]: 172 ng/mL; half-life (human, in vivo, po, 10 mg, SAD, single oral 10 mg LSF fasting, plasma, mean): 365 h; Tmax (human, in vivo, po, 10 mg, SAD, single oral 10 mg LSF fasting, plasma): 1 h; AUC(0-t) [16]: 667 ng·h/mL; Cmax [16]: 30.2 ng/mL; half-life (human, in vivo, po, 20 mg, SAD, single oral 20 mg IRT fasting, plasma, mean): 348 h; Tmax (human, in vivo, po, 20 mg, SAD, single oral 20 mg IRT fasting, plasma): 2 h; AUC(0-t) [17]: 7480 ng·h/mL; Cmax [17]: 306 ng/mL; half-life (human, in vivo, po, 20 mg, SAD, single oral 20 mg LSF fasting, plasma, mean): 590 h; Tmax (human, in vivo, po, 20 mg, SAD, single oral 20 mg LSF fasting, plasma): 1.5 h; AUC 0–24 h [18]: 4110 ng·h/mL; Cmax [18]: 595 ng/mL; half-life (human, in vivo, po, 40 mg, SAD, single oral 40 mg LSF fasting, plasma, mean): 392 h; Tmax (human, in vivo, po, 40 mg, SAD, single oral 40 mg LSF fasting, plasma): 1.05 h; Frel, relative bioavailability IR tablet vs. LSF (in vivo): 11.71%
